Values quoted from earlier work in US10332616B2, “Movable type method applied to protein-ligand binding” (University of Florida Research Foundation, Inc., priority 2013, dated 2019).

Details: aqueous solvation free energy, charged compounds (ions)

| SMILES | Exp. ΔGsolv |
| --- | --- |
| Nc1cccc(N)c1 [i023, 3-aminoaniline, reference compound] | -275.3 kJ/mol |
| CCCN [i004, n-propylamine, reference compound] | -299.2 kJ/mol |
| C=CCN [i008, allylamine, reference compound] | -301.2 kJ/mol |
| CN [i003, methylamine, reference compound] | -319.7 kJ/mol |
| COc1ccc(N)cc1 [i093, 4-methoxyaniline, reference compound] | -297.9 kJ/mol |

Same assay, conditions: experimental solvation free energy, neutral compounds test set

| SMILES | Exp. ΔGsolv |
| --- | --- |
| COc1ccc2cc([C@H](C)C(=O)O)ccc2c1 [test2021] | -42.72 kJ/mol |
| CNC(=O)O/N=C/C(C)(C)SC [test1008] | -41 kJ/mol |
| CCOc1ccc(NC(C)=O)cc1 [test3005] | -45.65 kJ/mol |
| O=S1(=O)CCCC1 [test2027] | -36 kJ/mol |
| CC(=O)Nc1ccccc1O [test3004] | -48.58 kJ/mol |
| CCCCCCCO [Compound 0058hep] | -17.7 kJ/mol |
| CSc1ccccc1 [Compound 0144thi] | -11.4 kJ/mol |
| CS [Compound 0136met] | -5.19 kJ/mol |
| CN [Compound 0228met] | -19.1 kJ/mol |
| C1CCNCC1 [Compound 0225pipa] | -21.4 kJ/mol |
| Cc1c(Cl)cccc1Nc1ccccc1C(=O)O [test3019] | -28.1 kJ/mol |
| Cc1ccccc1O [Compound 0055ocr] | -24.6 kJ/mol |
| CC(N)=O [Compound 0233ethb] | -40.6 kJ/mol |
| CC(=O)Oc1ccccc1C(=O)O [test2001] | -41.6 kJ/mol |
| CCCC=O [Compound 0072but] | -13.3 kJ/mol |
| CCOP(=S)(OCC)SCSP(=S)(OCC)OCC [test1031] | -25.5 kJ/mol |
| CN(C)c1ccccc1 [n014] | -15 kJ/mol |
| C1COCCO1 [Compound 0062dio] | -21.1 kJ/mol |
| CCOC(=O)CC(SP(=S)(OC)OC)C(=O)OCC (stereo not drawn) [test1036] | -34.3 kJ/mol |
| COCOC [test0012] | -12.3 kJ/mol |
| FC1(F)C(F)(F)C(F)(F)C1(F)F [test2023] | 14.4 kJ/mol |
| O=C(O)c1cc(-c2ccc(F)cc2F)ccc1O [test2010] | -39.3 kJ/mol |
| Cc1ccc(N)cc1 [n011] | -23.2 kJ/mol |
| COc1ccccc1 [Compound 0068ani] | -10.3 kJ/mol |
| O=c1[nH]c(=O)[nH]c(=O)[nH]1 [test2007] | -75.56 kJ/mol |
| CCCCOC(=O)c1ccc(O)cc1 [test2003] | -36.5 kJ/mol |

| SMILES | Exp. ΔGsolv |
| --- | --- |
| COC(=O)c1ccccc1S(=O)(=O)NC(=O)Nc1nc(C)cc(C)n1 [test1051] | -84.9 kJ/mol |
| CCCO [Compound 0047pro] | -20.2 kJ/mol |
| CC(=O)Nc1cccc(O)c1 [test3002] | -58.28 kJ/mol |
| OC1CCCC1 [Compound 0051cyc] | -23 kJ/mol |
| CCCSCCC [Compound 0143dip] | -5.31 kJ/mol |
| CCCOC(C)=O [Compound 0097pro] | -12 kJ/mol |
| CCCNCCC [Compound 0115dip] | -15.3 kJ/mol |
| CCc1cccc(CC)c1N(COC)C(=O)CCl [test1007] | -34.3 kJ/mol |
| Clc1c(Cl)c(Cl)c(Cl)c(Cl)c1Cl [test2015] | -9.75 kJ/mol |
| CCOP(=S)(OCC)Oc1ccc([N+](=O)[O-])cc1 [test1043] | -28 kJ/mol |
| CCCC(=O)OC [Compound 0096met] | -11.8 kJ/mol |
| CC(C)O [Compound 0048pro] | -7.36 kJ/mol |
| CCCOC [Compound 0064met] | -6.95 kJ/mol |
| CCCCC=O [Compound 0073pen] | -12.7 kJ/mol |
| CCNc1nc(Cl)nc(NCC)n1 [test1050] | -42.7 kJ/mol |
| COC(C)(C)C [Compound 0067but] | -9.25 kJ/mol |
| CCO [Compound 0045eth] | -21 kJ/mol |
| ClC1=C(Cl)C2(Cl)C3C4CC(C5OC45)C3C1(Cl)C2(Cl)Cl (stereo not drawn) [test1030] | -23 kJ/mol |
| O=Cc1cccc(O)c1 [Compound 0150mhy] | -39.8 kJ/mol |
| O=C(O)c1ccccc1Nc1cccc(C(F)(F)F)c1 [test3021] | -23.8 kJ/mol |
| C1CNC1 [Compound 0105aze] | -23.3 kJ/mol |
| FC(F)OC(Cl)C(F)(F)F (stereo not drawn) [Compound 0209chl] | 0.46 kJ/mol |
| CCCS [Compound 0138pro] | -4.39 kJ/mol |
| CNC(=O)ON=C(C)SC [test1037] | -44.8 kJ/mol |
| Nc1cccc2c1C(=O)c1ccccc1C2=O [test1061] | -33 kJ/mol |

Same assay, conditions: experimental solvation free energy; test set with 372 neutral compounds

| SMILES | Exp. ΔGsolv |
| --- | --- |
| c1ccncc1 [Compound 0116pyr] | -19.7 kJ/mol |
| C[C@@H]1CCCC[C@@H]1C [Compound 0020cis] | 6.61 kJ/mol |
| N#Cc1ccccc1 [Compound 0129ben] | -17.2 kJ/mol |
| Cc1ccc(Br)cc1 [Compound 0420pbr] | -5.82 kJ/mol |
| FCCl [Compound 0198chl] | -3.22 kJ/mol |
| FC(F)(Cl)Cl [Compound 0421dfl] | 7.07 kJ/mol |
| C1CCCC1 [Compound 0017cyc] | 5.02 kJ/mol |
| CCC(C)c1cc([N+](=O)[O-])cc([N+](=O)[O-])c1O (stereo not drawn) [test1028] | -25.9 kJ/mol |
| CC[N+](=O)[O-] [Compound 0130nit] | -15.5 kJ/mol |
| CCC(C)O[N+](=O)[O-] (stereo not drawn) [test1004] | -7.53 kJ/mol |
| FC(F)(F)C(F)(F)F [Compound 0405hex] | 16.5 kJ/mol |
| ClC(Cl)=C(Cl)Cl [Compound 0204tet] | 0.21 kJ/mol |
| C=CCl [Compound 0169chl] | -2.47 kJ/mol |
| CC(C)CC(C)C [Compound 0013dim] | 12 kJ/mol |
| c1ccccc1 [Compound 0035ben] | -3.64 kJ/mol |
| CC(C)Br [Compound 0183bro] | -2.01 kJ/mol |
| COP(=S)(OC)Oc1cc(Cl)c(Br)cc1Cl [Compound 0445pho] | -23.8 kJ/mol |
| CC(C)CO[N+](=O)[O-] [test1005] | -7.95 kJ/mol |
| Cl[C@H]1[C@H](Cl)[C@@H](Cl)[C@@H](Cl)[C@H](Cl)[C@H]1Cl [test1035] | -22.6 kJ/mol |
| Clc1ccccc1-c1cccc(Cl)c1Cl [Compound 0416dcl] | -8.33 kJ/mol |
| CCC(C)=O [Compound 0076but] | -15.2 kJ/mol |
| CCCCCC [Compound 0006nhe] | 10.4 kJ/mol |
| CCC#N [Compound 0127pro] | -16.1 kJ/mol |

| SMILES | Exp. ΔGsolv |
| --- | --- |
| ClC(Cl)Cl [Compound 0162tri] | -4.48 kJ/mol |
| C=C [Compound 0021eth] | 5.31 kJ/mol |
| CC(Cl)(Cl)Cl [Compound 0165tri] | -1.05 kJ/mol |
| FC(F)(F)C(Cl)Br (stereo not drawn) [Compound 0201bro] | -0.544 kJ/mol |
| CC(C)=O [Compound 0075pro] | -16.1 kJ/mol |
| CC(F)F [Compound 0154dif] | -0.46 kJ/mol |
| CCOP(=S)(OCC)SCSc1ccc(Cl)cc1 [test1017] | -27.2 kJ/mol |
| C1CCCCC1 [Compound 0018cyc] | 5.15 kJ/mol |
| C/C=C/CC [Compound 0028Epe] | 5.61 kJ/mol |
| ClCC(Cl)(Cl)Cl [Compound 0407tet] | -4.81 kJ/mol |
| C=CC [Compound 0022pro] | 5.31 kJ/mol |
| Clc1ccccc1-c1ccccc1Cl [Compound 0414dcl] | -11.4 kJ/mol |
| C#CC [Compound 0031pro] | -1.3 kJ/mol |
| Cl/C=C/Cl [Compound 0172Edi] | -3.18 kJ/mol |
| Clc1ccc(Cl)cc1 [Compound 0176pdi] | -4.23 kJ/mol |
| CCCCBr [Compound 0184bro] | -1.72 kJ/mol |
| CCC(C)Cl (stereo not drawn) [Compound 0409clb] | 0.29 kJ/mol |
| CCCCCBr [Compound 0185bro] | -0.33 kJ/mol |
| C[N+](=O)[O-] [Compound 0506nit] | -16.5 kJ/mol |
| CCCC(=O)CCC [Compound 0083hep] | -12.3 kJ/mol |
| COP(=O)(OC)OC=C(Cl)Cl [Compound 0433pho] | -27.7 kJ/mol |
| CCOP(=S)(OCC)Oc1nc(Cl)c(Cl)cc1Cl [test1022] | -21 kJ/mol |
| Clc1ccccc1Cl [Compound 0175odi] | -5.69 kJ/mol |
